From patent US11034650B2, “Compounds useful for treating a Mannheimia haemolytica or Histophilus somni infection” (Intervet Inc., priority 2016, dated 2021)
≈ marks a conversion by molar mass, not a printed value.

Legend:
Assay type in all cases: cell-based
[1] = system: Mannheimia haemolytica MH 6357 (M7/2, reference strain, cattle infection strain); assay: MIC, broth-microdilution (CLSI VET01-A4), strain MH 6357; details: Mannheimia haemolytica strain MH 6357, broth-microdilution; unit assumed
Summary of the method: (§1)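 Using trays holding a doubling concentration series, the MIC is read as the minimal concentration with no eye-detectable growth.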

[2] = system: Mannheimia haemolytica MH 6374 (ATCC 33396, reference strain); assay: MIC, broth-microdilution (CLSI VET01-A4), strain MH 6374; details: Mannheimia haemolytica strain MH 6374, broth-microdilution; unit assumed
Summary of the method: as §1

[3] = system: Mannheimia haemolytica MH 10720 (154, BRD field isolate); assay: MIC, broth-microdilution (CLSI VET01-A4), strain MH 10720; details: Mannheimia haemolytica strain MH 10720, broth-microdilution; unit assumed
Summary of the method: as §1

[4] = system: Mannheimia haemolytica MH 12587 (1071, BRD field isolate, macrolide-resistance: erm+, E+); assay: MIC, broth-microdilution (CLSI VET01-A4), strain MH 12587; details: Mannheimia haemolytica strain MH 12587, broth-microdilution; unit assumed
Summary of the method: as §1

[5] = system: Mannheimia haemolytica MH 13065 (XB0446-6003.9, BRD field isolate); assay: MIC, broth-microdilution (CLSI VET01-A4), strain MH 13065; details: Mannheimia haemolytica strain MH 13065, broth-microdilution; unit assumed
Summary of the method: as §1

[6] = system: Mannheimia haemolytica MH 13093 (XB0472-6014.1, BRD field isolate); assay: MIC, broth-microdilution (CLSI VET01-A4), strain MH 13093; details: Mannheimia haemolytica strain MH 13093, broth-microdilution; unit assumed
Summary of the method: as §1

[7] = system: Pasteurella multocida PM 6267 (P 2225 (L386), reference strain, mouse infection strain); assay: MIC, broth-microdilution (CLSI VET01-A4), strain PM 6267; details: Pasteurella multocida strain PM 6267, broth-microdilution; unit assumed
Summary of the method: as §1

[8] = system: Pasteurella multocida PM 6391 (ATCC 43137, reference strain); assay: MIC, broth-microdilution (CLSI VET01-A4), strain PM 6391; details: Pasteurella multocida strain PM 6391, broth-microdilution; unit assumed
Summary of the method: as §1

[9] = system: Pasteurella multocida PM 10775 (080130003051, BRD field isolate); assay: MIC, broth-microdilution (CLSI VET01-A4), strain PM 10775; details: Pasteurella multocida strain PM 10775, broth-microdilution; unit assumed
Summary of the method: as §1

[10] = system: Pasteurella multocida PM 12080 (IV102277-0093, BRD field isolate); assay: MIC, broth-microdilution (CLSI VET01-A4), strain PM 12080; details: Pasteurella multocida strain PM 12080, broth-microdilution; unit assumed
Summary of the method: as §1

| MIC PM 6267 [7] | MIC PM 6391 [8] | MIC PM 10775 [9] | MIC PM 12080 [10] | SMILES | MIC MH 6357 [1] | MIC MH 6374 [2] | MIC MH 10720 [3] | MIC MH 12587 [4] | MIC MH 13065 [5] | MIC MH 13093 [6] |
| --- | --- | --- | --- | --- | --- | --- | --- | --- | --- | --- |
| 0.2 µg/mL (≈ 0.43 µM) | 0.8 µg/mL (≈ 1.72 µM) | ≤ 0.1 µg/mL | 0.4 µg/mL (≈ 0.859 µM) | CSC(C)(C)[C@H](NC(=O)c1ccc(C#Cc2ccc(CNC3CCC3)cc2)cc1)C(=O)NO [Compound 243] | 3.1 µg/mL (≈ 6.66 µM) | 3.1 µg/mL (≈ 6.66 µM) | 0.4 µg/mL (≈ 0.859 µM) | 3.1 µg/mL (≈ 6.66 µM) | 1.6 µg/mL (≈ 3.44 µM) | 1.6 µg/mL (≈ 3.44 µM) |
| 0.2 µg/mL (≈ 0.413 µM) | 0.4 µg/mL (≈ 0.825 µM) | ≤ 0.1 µg/mL | 0.2 µg/mL (≈ 0.413 µM) | C=CCNCc1ccc(C#Cc2ccc(C(=O)N[C@H](C(=O)NO)C(C)(C)S(C)(=O)=O)cc2)cn1 [Compound 370] | 0.8 µg/mL (≈ 1.65 µM) | 1.6 µg/mL (≈ 3.3 µM) | 0.8 µg/mL (≈ 1.65 µM) | 3.1 µg/mL (≈ 6.4 µM) | 1.6 µg/mL (≈ 3.3 µM) | 3.1 µg/mL (≈ 6.4 µM) |
| ≤ 0.1 µg/mL | 0.2 µg/mL (≈ 0.468 µM) | ≤ 0.1 µg/mL | ≤ 0.1 µg/mL | CC(C)(O)[C@H](NC(=O)c1ccc(C#Cc2ccc(CNC3CC3)s2)cc1)C(=O)NO [Compound 290] | ≤ 0.1 µg/mL | ≤ 0.1 µg/mL | ≤ 0.1 µg/mL | 0.4 µg/mL (≈ 0.936 µM) | ≤ 0.1 µg/mL | 0.2 µg/mL (≈ 0.468 µM) |
| ≤ 0.1 µg/mL | ≤ 0.1 µg/mL | ≤ 0.1 µg/mL | ≤ 0.1 µg/mL | CC(C)(O)[C@H](NC(=O)c1ccc(C#Cc2ccc(CNCc3ccncc3)cc2)cc1)C(=O)NO [Compound 275] | 0.4 µg/mL (≈ 0.846 µM) | 0.2 µg/mL (≈ 0.423 µM) | ≤ 0.1 µg/mL | 0.4 µg/mL (≈ 0.846 µM) | 0.2 µg/mL (≈ 0.423 µM) | 0.4 µg/mL (≈ 0.846 µM) |
| 0.2 µg/mL (≈ 0.457 µM) | 0.4 µg/mL (≈ 0.914 µM) | ≤ 0.1 µg/mL | 0.4 µg/mL (≈ 0.914 µM) | COCCCNCc1ccc(C#Cc2ccc(C(=O)N[C@H](C(=O)NO)C(C)C)cc2)cc1 [Compound 205] | 1.6 µg/mL (≈ 3.66 µM) | 3.1 µg/mL (≈ 7.09 µM) | 0.8 µg/mL (≈ 1.83 µM) | 6.3 µg/mL (≈ 14.4 µM) | 1.6 µg/mL (≈ 3.66 µM) | 3.1 µg/mL (≈ 7.09 µM) |
| ≤ 0.1 µg/mL | 0.4 µg/mL (≈ 0.797 µM) | ≤ 0.1 µg/mL | ≤ 0.1 µg/mL | COc1ccc(CNCc2ccc(C#Cc3ccc(C(=O)N[C@H](C(=O)NO)C(C)(C)O)cc3)cc2)cc1 [Compound 224] | 0.8 µg/mL (≈ 1.59 µM) | 0.8 µg/mL (≈ 1.59 µM) | ≤ 0.1 µg/mL | 1.6 µg/mL (≈ 3.19 µM) | 0.8 µg/mL (≈ 1.59 µM) | 0.8 µg/mL (≈ 1.59 µM) |
| 1.6 µg/mL (≈ 3.76 µM) | 6.3 µg/mL (≈ 14.8 µM) | ≤ 0.1 µg/mL | 0.8 µg/mL (≈ 1.88 µM) | COCCCNCc1ccc(C#Cc2ccc(C(=O)N[C@@H](CO)C(=O)NO)cc2)cc1 [Compound 153] | 12.5 µg/mL (≈ 29.4 µM) | 25 µg/mL (≈ 58.8 µM) | 6.3 µg/mL (≈ 14.8 µM) | 25 µg/mL (≈ 58.8 µM) | 12.5 µg/mL (≈ 29.4 µM) | 25 µg/mL (≈ 58.8 µM) |
| 3.1 µg/mL (≈ 7.39 µM) | 12.5 µg/mL (≈ 29.8 µM) | 0.4 µg/mL (≈ 0.953 µM) | 3.1 µg/mL (≈ 7.39 µM) | CC[C@H](C)[C@H](NC(=O)c1ccc(C#Cc2cccc(CNC3CC3)c2)cc1)C(=O)NO [Compound 144] | 6.3 µg/mL (≈ 15 µM) | 12.5 µg/mL (≈ 29.8 µM) | 1.6 µg/mL (≈ 3.81 µM) | 25 µg/mL (≈ 59.6 µM) | 12.5 µg/mL (≈ 29.8 µM) | 12.5 µg/mL (≈ 29.8 µM) |
| 0.8 µg/mL (≈ 1.63 µM) | 0.4 µg/mL (≈ 0.815 µM) | ≤ 0.1 µg/mL | ≤ 0.1 µg/mL | CC(C)(C(NC(=O)c1ccc(C#Cc2ccc(CNCc3ccco3)cc2)cc1)C(=O)NO)[N+](=O)[O-] (centres unmarked) [Compound 287] | 0.4 µg/mL (≈ 0.815 µM) | 0.8 µg/mL (≈ 1.63 µM) | ≤ 0.1 µg/mL | 1.6 µg/mL (≈ 3.26 µM) | 0.8 µg/mL (≈ 1.63 µM) | 0.8 µg/mL (≈ 1.63 µM) |
| 25 µg/mL (≈ 57.3 µM) | 0.4 µg/mL (≈ 0.916 µM) | 1.6 µg/mL (≈ 3.67 µM) | 0.2 µg/mL (≈ 0.458 µM) | CCCNCc1ccc(C#Cc2ccc(C(=O)N[C@H](C(=O)NO)C(C)=NOC)cc2)cc1 [Compound 387] | 6.3 µg/mL (≈ 14.4 µM) | 6.3 µg/mL (≈ 14.4 µM) | 3.1 µg/mL (≈ 7.1 µM) | 1.6 µg/mL (≈ 3.67 µM) | 6.3 µg/mL (≈ 14.4 µM) | 3.1 µg/mL (≈ 7.1 µM) |
| ≤ 0.1 µg/mL | 0.4 µg/mL (≈ 0.91 µM) | ≤ 0.1 µg/mL | 0.4 µg/mL (≈ 0.91 µM) | COCCNCc1ccc(C#Cc2ccc(C(=O)N[C@H](C(=O)NO)C(C)(C)O)cc2)cc1 [Compound 221] | 0.8 µg/mL (≈ 1.82 µM) | 0.8 µg/mL (≈ 1.82 µM) | ≤ 0.1 µg/mL | 3.1 µg/mL (≈ 7.05 µM) | 1.6 µg/mL (≈ 3.64 µM) | 1.6 µg/mL (≈ 3.64 µM) |
